Source: patent US7977049B2, “Methods and compositions for extending the life span and increasing the stress resistance of cells and organisms” (priority 2002, dated 2011)
Read-outs that look alike come from different tables or passages of the source.

Legend:
recombinant human SIRT1 = target: T1, recombinant human SIRT1 (Homo sapiens, UniProt Q96EB6); experiment: In vitro deacetylation assay (HDAC Fluorescent Activity Assay), SIRT1; assay type: biochemical
T1 sequence (Q96EB6 1-747): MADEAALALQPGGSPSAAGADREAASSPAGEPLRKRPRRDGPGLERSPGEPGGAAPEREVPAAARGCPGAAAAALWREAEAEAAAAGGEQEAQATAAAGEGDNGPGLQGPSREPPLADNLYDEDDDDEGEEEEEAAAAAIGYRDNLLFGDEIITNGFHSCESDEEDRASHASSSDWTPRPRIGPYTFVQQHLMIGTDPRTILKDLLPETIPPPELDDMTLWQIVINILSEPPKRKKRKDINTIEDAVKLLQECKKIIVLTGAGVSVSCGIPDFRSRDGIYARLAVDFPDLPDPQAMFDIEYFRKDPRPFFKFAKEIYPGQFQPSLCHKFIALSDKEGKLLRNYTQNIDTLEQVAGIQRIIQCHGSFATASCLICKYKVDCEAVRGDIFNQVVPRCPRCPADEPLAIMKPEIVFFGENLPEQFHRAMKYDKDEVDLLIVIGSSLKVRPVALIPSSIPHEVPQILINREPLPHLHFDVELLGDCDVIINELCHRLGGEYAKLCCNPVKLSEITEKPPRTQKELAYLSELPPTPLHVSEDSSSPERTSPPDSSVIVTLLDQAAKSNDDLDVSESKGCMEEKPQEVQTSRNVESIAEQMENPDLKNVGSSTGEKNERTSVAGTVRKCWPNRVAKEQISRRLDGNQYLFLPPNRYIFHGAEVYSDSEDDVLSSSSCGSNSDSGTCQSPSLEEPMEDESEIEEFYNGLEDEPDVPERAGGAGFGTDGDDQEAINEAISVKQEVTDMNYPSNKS
Description: (§1) FIG. 13. […] Reactions were terminated by the addition of developer and samples were analyzed by fluorometry (excitation set at 360 nm and emission at 460 nm). Experiments were performed in triplicate. Data is shown as a Lineweaver-Burk double reciprocal plot of arbitrary fluorescence units (AFUs) min^−1 versus NAD^+ (μM). B, Experiments were performed as in A, except that recombinant human SIRT1 was used and reactions were carried out at 37° C. […] Reactions were carried out at 37° C. for 30 minutes and fluorescence was measured as in A.
(§2) In vitro deacetylation assays—Recombinant GST tagged yeast Sir2p (gift of D. Moazed) and recombinant human SIRT1 (47′) were assayed for deacetylase activity using the HDAC Fluorescent Activity Assay/Drug Discovery Kit (AK-500, BIOMOL Research Laboratories). This assay system allows detection of a fluorescent signal upon deacetylation of a histone substrate when treated with developer. Fluorescence was measured on a fluorometric reader (Cytofluor II 400 series PerSeptive Biosystems) with excitation set at 360 nm and emission detection set at 460 nm. Reactions consisted of either 5 μg of GST-Sir2 or 2.5 μg of SIRT1, incubated with 250 μM acetylated histone substrate, 1 mM DTT and a range of NAD^+ concentrations as described, in 50 μl of assay buffer. […]

[1] = target: T2, Recombinant GST tagged yeast Sir2p (Saccharomyces cerevisiae, UniProt P06700); experiment: In vitro deacetylation assay (HDAC Fluorescent Activity Assay), Sir2; assay type: biochemical; details: 200-750 μM NAD+, 30° C.
T2 construct: gift of D. Moazed
Description: as §1, §2

[2] = system: yeast (PSY316AT and sir2::TRP1 strains)
Description: (§3) FIG. 9. […] A, Strains were assayed for rDNA stability by examining the rate of loss of an ADE2 marker integrated at the rDNA locus. […] More than 10,000 colonies were examined for each strain and each experiment was performed in triplicate. Average recombination frequencies (+/−s.d.) per cell division are shown. Relevant strains: W303-1A RDN1::ADE2 (W303AR5) and W303AR5 derivatives 2×SIR2 (YDS1572) and sir2::TRP1 (YDS878). […] C and D, Life spans were determined by scoring the number of daughter cells produced by each mother cell before cessation of cell division (68′,69′). Cells were pre-grown for a minimum of 48 h on complete glucose medium.
Replicative life span determination was performed by micromanipulation as described (25′). A minimum of 40 cells were examined per experiment and each experiment was performed at least twice independently. Statistical significance of life span differences was determined using the Wilcoxon rank sum test. Differences are stated to be significant when the confidence is higher than 95%.
Cells were grown for two days on fresh yeast YPD medium to ensure that they had fully recovered from conditions of calorie restriction prior to the assay. Daughter cells that emerged from previously unbudded mother cells were then micro-manipulated away and scored.

[3] = system: rDNA locus of yeast (W303AR5 strains); experiment: Ribosomal DNA recombination (loss of ADE2 marker at the rDNA locus); assay type: cell-based, Saccharomyces cerevisiae; details: 5 mM nicotinamide
Description: as §3

silencing at telomeres = experiment: Telomeric silencing assay (ADE2 marker at the telomere); assay type: cell-based, Saccharomyces cerevisiae; details: 5 mM nicotinamide, limiting adenine
Description: Silencing of the MET15 marker is indicated by the accumulation of a brown pigment. Single dark brown colonies in RDN1::MET15 strains represent marker loss events. Relevant genotypes: met15Δ (JS209), MET15 (JS241), RDN1::MET15 (JS237), sir2::TRP1 (JS218), 2×SIR2 (YDS1583). […] Silencing of the ADE2 marker results in the accumulation of a red pigment. Relevant genotypes: (PSY316AT), W303-1 A ADE2 (YDS1596) and W303-1A ade2 (YDS 1595).
Cells were grown at 30° C. on YPD medium (1% yeast extract, 2% bactopeptone, 2% glucose w/v) unless otherwise stated. The extent of silencing at the ribosomal DNA locus was determined by growing RDN1::MET15 strains on Pb^2+-containing medium (0.3% peptone, 0.5% yeast extract, 4% glucose, 0.02% (w/v) ammonium acetate, 0.07% Pb(NO3)2 and 2% agar). […] Ribosomal DNA recombination frequencies were determined as previously described (44′).
To monitor telomeric silencing, we used a strain in which the ADE2 gene is integrated at the subtelomeric (Y′) region of the right arm of chromosome V (22′). On plates with limiting adenine, colonies have red/white sectors due to variegated expression of the ADE2 marker.

[4] = system: silencing of mating type genes; experiment: Mating type locus silencing assay; assay type: cell-based, Saccharomyces cerevisiae; details: nicotinamide
[5] = system: silent mating type locus (HMR); experiment: HMR::GFP reporter silencing (fluorescence microscopy and FACS); assay type: cell-based, Saccharomyces cerevisiae; details: for GFP expression from HMR by FACS: asynchronous wild type cells, 5 mM compound
Description: FIG. 10. […] Cells were photographed live. […] Cells were analyzed by fluorescent activated cell sorting (FACS) to determine the extent of ADH-GFP expression. C, A MATa derivative of strain YDS970 (YDS1005) was deleted for HML and treated with 10 μg/ml alpha-factor for 3 hours. […] Cell cycle progression was monitored at each time point by FACS analysis of propidium iodide stained cells.
GFP fluorescence was quantified by fluorescence-activated cell sorting (FACS) using a FACSCalibur flow cytometer (Becton Dickinson, Calif.) as described (45′). For G1-arrest experiments, cells were treated with 10 μg/ml alpha factor for 3 hours. DNA content was determined by FACS analysis of fixed cells stained with propidium iodide (Sigma) as described (45′). Typically 20,000 cells were analyzed per sample. Data acquisition and analysis were performed using CELLQuest software (Becton Dickenson).

Sir2 = Sir2 protein levels in the presence of nicotinamide; assay type: cell-based, Saccharomyces cerevisiae; details: nicotinamide 1-5 mM
[6] = target: T3, association of Sir2 with rDNA, HMR and sub-telomeric DNA (Saccharomyces cerevisiae, UniProt P06700); experiment: Chromatin immunoprecipitation with α-Sir2 antibody; assay type: cell-based; details: 5 mM nicotinamide
T3 construct: endogenous in cells; host or cells: S. cerevisiae W303AR5
Description: FIG. 12. […] PCR amplification of both input DNA from whole cell extracts and immunoprecipitated chromatin are shown. PCR was performed using primer pairs specific for the CUP1 gene (top panels), 5S rDNA (second panels), the HMR locus (third panels), or subtelomeric DNA 1.4 and 0.6 kb from telomeres (bottom panels).
Fluorescence Microscopy and Chomatin immunoprecipitation—GFP fluorescence was visualized in live cells grown to log phase in synthetic complete (SC) medium (1.67% yeast nitrogen base, 2% glucose, 40 mg/liter each of histidine, uridine, tryptophan, adenine and leucine). Images were captured using a Nikon Eclipse E600 microscope at a magnification of 1000× and analyzed with Scion Image software. PCR reactions were carried out in a 50 μl volume using a 1/5000 or a 1/12500 dilution of input DNA from precleared whole-cell extracts and a 1/50 dilution of immunoprecipitated DNA. PCR parameters were as follows. For CUP1 and 5S rDNA primer pairs, 26 cycles of PCR were performed with an annealing temperature of 55° C. For Tel 0.6, Tel 1.4 and HM primer pairs 32 cycles at an annealing temperature of 50° C. were used. PCR products were separated by gel electrophoresis on a 2.3% agarose gel and visualized by ethidium bromide staining.

[7] = system: silencing at the rDNA locus (RDN1)
Description: Silencing of the MET15 marker is indicated by the accumulation of a brown pigment. Single dark brown colonies in RDN1::MET15 strains represent marker loss events. […] Silencing of the ADE2 marker results in the accumulation of a red pigment.
Cells were grown at 30° C. on YPD medium (1% yeast extract, 2% bactopeptone, 2% glucose w/v) unless otherwise stated. The extent of silencing at the ribosomal DNA locus was determined by growing RDN1::MET15 strains on Pb^2+-containing medium (0.3% peptone, 0.5% yeast extract, 4% glucose, 0.02% (w/v) ammonium acetate, 0.07% Pb(NO3)2 and 2% agar).
Strains with either an ADE2 or MET15 marker integrated at the rDNA locus (RDN1) were examined. Silencing of ADE2 results in the accumulation of a red pigment on plates with limiting adenine, whereas silencing of MET15 leads to production of a brown pigment on Pb^2+-containing medium. […] Strains with a single extra copy of SIR2 (2×SIR2) or lacking SIR2 (sir2::TRP1), were included as controls for increased silencing and lack of silencing, respectively.

T3 sequence (P06700 whole entry): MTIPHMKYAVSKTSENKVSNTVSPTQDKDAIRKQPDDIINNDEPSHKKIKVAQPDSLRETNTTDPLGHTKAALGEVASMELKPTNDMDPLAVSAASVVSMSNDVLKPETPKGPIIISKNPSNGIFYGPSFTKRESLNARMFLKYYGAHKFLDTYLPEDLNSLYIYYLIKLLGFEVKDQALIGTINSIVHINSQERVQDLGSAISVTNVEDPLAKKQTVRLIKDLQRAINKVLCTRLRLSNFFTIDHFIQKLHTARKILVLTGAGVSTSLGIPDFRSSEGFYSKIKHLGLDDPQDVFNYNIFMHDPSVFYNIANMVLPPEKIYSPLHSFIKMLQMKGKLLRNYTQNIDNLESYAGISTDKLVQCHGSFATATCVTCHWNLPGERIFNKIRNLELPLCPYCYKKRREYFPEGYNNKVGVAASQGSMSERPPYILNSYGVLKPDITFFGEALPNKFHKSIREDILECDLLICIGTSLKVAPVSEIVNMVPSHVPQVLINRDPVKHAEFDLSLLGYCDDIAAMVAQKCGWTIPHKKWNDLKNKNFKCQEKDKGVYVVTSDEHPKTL
T2 sequence (P06700 whole entry): as above

In the case of `NC(=O)c1cccnc1` [nicotinamide], the “mode of inhibition of SIRT1 (Lineweaver-Burk plot)” value (recombinant human SIRT1; varying amounts of nicotinamide and NAD+) is reported as “non-competitive”, the “mode of inhibition of Sir2 deacetylation (Lineweaver-Burk plot)” value [1] is reported as “strong non-competitive inhibitor” and the “Average life span, sir2 strain” value ([2]; sir2::TRP1 (YDS1594), 5 mM nicotinamide) is reported as 11.7. For the same compound, the “Average life span, wild type” value ([2]; wild type (PSY316AT), 5 mM nicotinamide) was 12.1, the “rDNA recombination in the sir2 strain” value ([3]; sir2 strain) was “did not further increase recombination” and the “increase of the frequency of ADE2 marker loss at the rDNA” value ([3]; wild type and 2×SIR2 cells) was ~7 fold. The “telomeric silencing of ADE2 marker” value (silencing at telomeres) was “complete loss of repression”, the “silencing of mating type genes” value [4] was “completely abrogated silencing” and the “HMR silencing in G1-arrested cells by FACS” value ([5]; alpha factor arrested cells, 5 mM nicotinamide) was “loss of silencing”. For the same compound, the “GFP expression from HMR by FACS” value [5] was “complete derepression”, the “GFP expression from HMR, live cells (microscopy)” value ([5]; cycling cells, 5 mM nicotinamide, after 60 minutes) was “dramatic increase in the level of expression” and the Sir2 protein levels (Sir2) was “unaltered”. For the same compound, the “ChIP: Sir2 association with 5S rDNA” value [6] was “did not alter the amount of PCR product”, the “ChIP: Sir2 association with HMR” value [6] was “no PCR product was obtained” and the “ChIP: Sir2 association with sub-telomeric DNA” value ([6]; 0.6 and 1.4 kb from telomere) was “equivalent to background”. The “silencing of MET15 marker at the rDNA locus” value ([7]; 5 mM nicotinamide) was “completely abolished” and the “Silencing of an ADE2 marker at the rDNA locus” value ([7]; addition of nicotinamide) was “similarly abolished”.

With `O=C(O)c1cccnc1` [nicotinic acid] the “effect on the activity of SIRT1 in vitro” value (recombinant human SIRT1; 50 μM compound, 200 μM NAD+) was “no effect”, the “effect on replicative life span” value ([2]; 5 or 50 mM nicotinic acid) was “no detrimental effect” and the “Average life span, sir2 strain” value ([2]; sir2 strain, nicotinic acid (concentration not clear)) was 12.2. The “Average life span, wild type” value ([2]; wild type, 5 mM nicotinic acid) was 26, the “Average life span, wild type” value ([2]; wild type, 50 mM nicotinic acid) was 25 and the “GFP expression from HMR by FACS” value [5] was “no increase in GFP expression”. The “effect on Sir2-dependent silencing” value ([7]; 5 mM nicotinic acid, each of the rDNA, telomeric and mating type silencing assays) was “no effect”.

With `O=C(O)c1cccnc1C(=O)O` [quinolinic acid] the “GFP expression from HMR by FACS” value [5] was “no increase in GFP expression”.
